Data reported in PMC6412381, “Covalently Linking Oligomerization-Impaired GlpF Protomers Does Not Completely Re-establish Wild-Type Channel Activity” (International Journal of Molecular Sciences, 2019).

Key:
[1] = biological target: T1, WT4 (genetically fused GlpF tetramer) (Escherichia coli, UniProt P0AER0); experiment: stopped-flow light scattering of E. coli SK46 cells, re-swelling by ribitol influx; format: cell-based; conditions: LB medium, mixed with equal volume of 600 mM ribitol, 25 °C, 500 µM IPTG induction; transport through channel
T1 construct: four full-length GlpF copies fused in one polypeptide, N-terminal extension MGSGLE, Val-Glu linkers between monomers, calculated 120 kDa; expressed in E. coli SK46 lacking GlpF and AqpZ
T1 sequence (P0AER0 1-281): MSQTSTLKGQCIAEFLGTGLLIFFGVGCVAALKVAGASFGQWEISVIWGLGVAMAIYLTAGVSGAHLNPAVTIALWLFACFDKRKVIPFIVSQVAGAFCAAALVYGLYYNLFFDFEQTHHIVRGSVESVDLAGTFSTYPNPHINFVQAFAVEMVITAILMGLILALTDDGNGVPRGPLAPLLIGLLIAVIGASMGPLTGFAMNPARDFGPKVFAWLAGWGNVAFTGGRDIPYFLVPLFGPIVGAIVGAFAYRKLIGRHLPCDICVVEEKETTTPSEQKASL

GlpF WT (non-fused) = biological target: T2, GlpF WT (non-fused) (Escherichia coli, UniProt P0AER0); experiment: as above; format: cell-based; conditions: LB medium, mixed with equal volume of 600 mM ribitol, 25 °C, 500 µM IPTG induction; transport through channel
T2 construct: expressed from pMalp2-based plasmid in E. coli SK46 lacking GlpF and AqpZ
T2 sequence (P0AER0 1-281): T1 sequence (P0AER0 1-281)

## OC[C@@H](O)[C@@H](O)[C@@H](O)CO [ribitol]
[1]
  k (flux rate constant): yet the WT4 protein was still highly active
GlpF WT (non-fused)
  k (flux rate constant): the ribitol conductance of the fused GlpF tetramer was slightly decreased compared to the non-fused
